Assays:
[1] = test system: α-isomaltosyl-transferring enzyme; assay: Influence of metal ions on activity of α-isomaltosyl-transferring enzyme (Strain C9); format: biochemical, Bacillus globisporus C9; conditions: for Effect on enzyme activity (in words): 1 mM, summary of Table 4; for Relative activity: in the presence of 1 mM of each metal ion, None = 100
Experimental: (§1) The α-isomaltosyl-transferring enzyme was assayed for enzymatic activity by dissolving panose in 100 mM acetate buffer (pH 6.0) to give a concentration of 2% (w/v) for a substrate solution, adding a 0.5 ml of an enzyme solution to 0.5 ml of the substrate solution, enzymatically reacting the mixture solution at 35° C. for 30 min, suspending the reaction mixture by boiling for 10 min, and quantifying glucose, among the cyclotetrasaccharide and glucose formed in the reaction mixture, by the glucose oxidase method. One unit activity of the α-isomaltosyl-transferring enzyme is defined as the enzyme amount that forms one micromole of glucose per minute under the above enzymatic reaction conditions.
(§2) The influence of metal ions on the activity of α-isomaltosyl-transferring enzyme was examined in the presence of 1 mM of each metal-ion according to the assay for the enzyme activity.

[2] = test system: α-isomaltosylglucosaccharide-forming enzyme; assay: Influence of metal ions on enzyme activity, Experiment 4-2 (Strain C11); format: biochemical, Bacillus globisporus C11; conditions: for Effect on enzyme activity (in words): 1 mM, summary of Table 6; for Relative activity: in the presence of 1 mM of each metal ion, None = 100
[3] = test system: α-isomaltosylglucosaccharide-forming enzyme; assay: Influence of metal ions on activity of α-isomaltosylglucosaccharide-forming enzyme (Strain C9); format: biochemical, Bacillus globisporus C9; conditions: for Effect on enzyme activity (in words): 1 mM, summary of Table 2; for Relative activity: in the presence of 1 mM of each metal ion, None = 100
Experimental: The activities of these enzymes were assayed as follows: The α-isomaltosylglucosaccharide-forming enzyme of the present invention was assayed for enzymatic activity by dissolving maltotriose in 100 mM acetate buffer (pH 6.0) to give a concentration of 2% (w/v) for a substrate solution, adding a 0.5 ml of an enzyme solution to a 0.5 ml of the substrate solution, enzymatically reacting the mixture solution at 35° C. for 60 min, suspending the reaction mixture by heating at 100° C. for 10 min, and quantifying maltose, among the isomaltosyl maltose and maltose formed in the reaction mixture, by high-performance liquid chromatography (abbreviated as “HPLC” hereinafter). HPLC was carried out using “YMC PACK ODS-AQ303 column” commercialized by YMC Co., Ltd., Tokyo, Japan, at a column temperature of 40° C. and a flow rate of 0.5 ml/min of water; and using “RI-8012”, a differential refractometer commercialized by Tosoh Corporation, Tokyo, Japan. One unit activity of the α-isomaltosylglucosaccharide-forming enzyme is defined as the enzyme amount that forms one micromole of maltose per minute under the above enzymatic reaction conditions.
The influence of metal ions on the activity of α-isomaltosylglucosaccharide-forming enzyme was examined in the presence of 1 mM of each metal-ion according to the assay for the enzyme activity.

[4] = test system: α-isomaltosyl-transferring enzyme; assay: Influence of metal ions on activity of α-isomaltosyl-transferring enzyme (Strain C11); format: biochemical, Bacillus globisporus C11; conditions: for Effect on enzyme activity (in words): 1 mM, summary of Table 8; for Relative activity: in the presence of 1 mM of each metal ion, None = 100
Experimental: as §1, §2

Compound	Relative activity [1] [%]	Effect on enzyme activity (in words) [2]	Relative activity [2] [%]	Effect on enzyme activity (in words) [3]	Relative activity [3] [%]	Relative activity [4] [%]	Effect on enzyme activity (in words) [1]	Effect on enzyme activity (in words) [4]
O=C(O)CN(CCN(CC(=O)O)CC(=O)O)CC(=O)O [EDTA]	104	greatly inhibited	24	greatly inhibited	20	98	not inhibited	not inhibited
[Hg+2] [Hg^2+]	1	greatly inhibited	4	greatly inhibited	4	2	greatly inhibited	greatly inhibited
[Pb+2] [Pb^2+]	89		101		103	74		

More lines, main results first:

Relative activity [1] [%]	Effect on enzyme activity (in words) [2]	Relative activity [2] [%]	Effect on enzyme activity (in words) [3]	Relative activity [3] [%]	Relative activity [4] [%]	Compound	Effect on enzyme activity (in words) [1]	Effect on enzyme activity (in words) [4]
106	activated	142	activated	111	93	[Mn+2] [Mn^2+]		
101	inhibited	83	inhibited	80	93	[Sr+2] [Sr^2+]		
88		91		92	83	[Zn+2] [Zn^2+]		

— patent US20080241904A1, “PROCESS FOR PRODUCING ISOMALTOSE AND USES THEREOF” (KABUSHIKI KAISHA HAYASHIBARA SEIBUTSU KAGAKU KENKYUJO, priority 2001, published 2008)
